Measurements as given in patent publication US7081447B2, “Organic compounds with biological activity as thrombin inhibitors and use thereof” (Novel Science International GmbH, priority 2001, dated 2006).

Target: T1, thrombin (Homo sapiens, UniProt P00734)
Assay: in vitro inhibition of thrombin amidase activity (fluorogenic substrate Tos-Gly-Pro-Arg-(7-amino-4-methylcoumarin))
Assay type: biochemical
Design: with 10 μL of human thrombin solution
Settings: peptide concentration of 250 nM
Method: (§1) The values of the inhibition constant Ki were obtained from assays, in which thrombin hydrolyzes the fluorogenic substrate Tos-Gly-Pro-Arg-(7-amino-4-methylcoumarin). The assays were performed in 30 μL of assay buffer (0.05 M Tris, 0.1 M NaCl, 0.1% PEG 8000, pH 7.6) with 10 μL of human thrombin solution (10^−5 U/μL in assay buffer) and 140 μL of a solution of the fluorogenic substrate in assay buffer at a concentration v of 30 μM. Solutions of the test compound (10 μL) were added at various concentrations. The rates of substrate hydrolysis were measured by monitoring the reactions of 7-amino-4-methylcoumarin release at 460 nm with use of AMC. The reaction reached a steady state within 3 minutes after thrombin was combined with the substrate and an inhibitor. The kinetic data of the competitive inhibition (Km, Vmax, and Ki) were analyzed with the aid of the Hanes plot (A/V vs. A at various i values).
as §1, with “concentration” for “concentration v”, “using” for “with the aid of”, “values for A; here, A is the substrate concentration and V the reaction rate).” for “i values).”
as §1, with “conducted” for “performed”, “concentration” for “concentration v”, “using” for “with the aid of”, “values for A; here, A is the substrate concentration and V the reaction rate).” for “i values).”

Substance	Thrombin inhibition (thrombin amidase activity)
N-Acetyl-L-Nhm-D-Cha-L-Aze-D-Tyr-L-Har amide [Example 79]	80%
N-Acetyl-L-Nle-D-Cha-L-Aze-D-Tyr-L-Har amide [Example 84]	89%
N-Acetyl-L-Phg-D-Cha-L-Aze-D-Tyr-L-Har amide [Example 83]	95%
N-Acetyl-L-Pnp-D-Cha-L-Aze-D-Tyr-L-Har amide [Example 86]	72%
N-Acetyl-L-Ppd-D-Cha-L-Aze-D-Tyr-L-Har amide [Example 81]	76%
N-Acetyl-L-Tea-D-Cha-L-Aze-D-Tyr-L-Har amide [Example 82]	74%
N-Acetyl-L-Trp-D-Cha-L-Aze-D-Tyr-L-Har amide [Example 75]	76%

Same assay, conditions: peptide concentration of 1 μM

Substance	Thrombin inhibition (thrombin amidase activity)
N-Acetyl-L-Ser-D-Glu-L-Cha-D-Pro-D-Tyr-L-Arg amide [Example 23]	21%
N-Acetyl-L-Ser-D-Val-L-Cha-D-Pro-D-Tyr-L-Arg amide [Example 16]	48%
N-Acetyl-L-Ser-L-Cha-D-Pro-D-Tyr-L-Arg amide [Example 22]	31%
N-Acetyl-L-Ser-L-Cha-L-Cha-D-Pro-D-Tyr-L-Arg amide [Example 19]	43%
N-Acetyl-L-Trp-L-Cha-D-Pro-D-Tyr-L-Arg amide [Example 33]	63%
N-Acetyl-L-Tyr-D-Pro-L-Cha-D-Pro-D-Tyr-L-Arg amide [Example 39]	44%

Same assay, conditions: peptide concentration of 1 μM; 1 µM

Substance	Thrombin inhibition (thrombin amidase activity)
N-Acetyl-L-Ser-L-Ala-L-Cha-D-Pro-D-Tyr-L-Arg amide [Example 17]	48%
N-Acetyl-L-Ser-L-Ala-L-Cha-D-Pro-D-Tyr-L-Arg amide [Example 34]	47%
N-Acetyl-L-Ser-L-Ala-L-Cha-D-Pro-D-Tyr-L-Arg amide [Example 49]	47%
N-Acetyl-L-Ser-L-Ala-L-Cha-D-Pro-D-Tyr-L-Arg amide [Example 67]	47%
N-Acetyl-L-Ser-L-Arg-L-Cha-D-Pro-D-Tyr-L-Arg amide [Example 18]	67%
N-Acetyl-L-Ser-L-Arg-L-Cha-D-Pro-D-Tyr-L-Arg amide [Example 35]	51%
N-Acetyl-L-Ser-L-Arg-L-Cha-D-Pro-D-Tyr-L-Arg amide [Example 50]	51%
N-Acetyl-L-Ser-L-Arg-L-Cha-D-Pro-D-Tyr-L-Arg amide [Example 68]	51%
N-Acetyl-L-Ser-L-Ser-L-Cha-D-Pro-D-Tyr-L-Arg amide [Example 13]	49%
N-Acetyl-L-Ser-L-Ser-L-Cha-D-Pro-D-Tyr-L-Arg amide [Example 31]	40%
N-Acetyl-L-Ser-L-Ser-L-Cha-D-Pro-D-Tyr-L-Arg amide [Example 46]	40%
N-Acetyl-L-Ser-L-Ser-L-Cha-D-Pro-D-Tyr-L-Arg amide [Example 64]	40%
N-Acetyl-L-Tyr-L-Cit-L-Cha-D-Pro-D-Tyr-L-Arg amide [Example 15]	51%
N-Acetyl-L-Tyr-L-Cit-L-Cha-D-Pro-D-Tyr-L-Arg amide [Example 30]	55%
N-Acetyl-L-Tyr-L-Cit-L-Cha-D-Pro-D-Tyr-L-Arg amide [Example 45]	55%
N-Acetyl-L-Tyr-L-Cit-L-Cha-D-Pro-D-Tyr-L-Arg amide [Example 63]	55%

Target: T1, thrombin
Assay: not given
Settings: cited from earlier work

Substance	Ki
H-D-Phe-Pro-Arg-H	70 nM
